Organism: Rattus norvegicus
Assay: DrugMatrix - Regimen: Daily Repeat
Type: toxicity, organism-based, Sprague-Dawley
Set-up: regimen Daily Repeat, gender Male, age 6-8 weeks
Settings: in vivo, po, route oral GAVAGE, dose level High, vehicle 100 % WATER; for BASOPHIL / EOSINOPHIL / ERYTHROCYTE COUNT / HEMATOCRIT / HEMOGLOBIN / LEUKOCYTE COUNT / LYMPHOCYTE / MEAN CORPUSCULAR HEMOGLOBIN / MEAN CORPUSCULAR HEMOGLOBIN CONCENTRATION / MEAN CORPUSCULAR VOLUME / MONOCYTE / NEUTROPHIL / PLATELET COUNT / ABSOLUTE BASOPHIL / ABSOLUTE EOSINOPHIL / ABSOLUTE LYMPHOCYTE / ABSOLUTE MONOCYTE: tissue Blood; for ALANINE AMINOTRANSFERASE / ALBUMIN / ALKALINE PHOSPHATASE / ASPARTATE AMINOTRANSFERASE / BLOOD UREA NITROGEN / CARBON DIOXIDE / CHLORIDE / CHOLESTEROL / CREATINE PHOSPHOKINASE / CREATININE / GLUCOSE / LACTATE DEHYDROGENASE / LIPASE / PHOSPHORUS / POTASSIUM / SODIUM / TOTAL BILIRUBIN / TOTAL PROTEIN / URIC ACID: tissue Plasma

## COCCc1ccc(OCC(O)CNC(C)C)cc1 (configuration not stated) [METOPROLOL]
120 mg/kg, 120 h, time 5 day
  BASOPHIL: 0.67%
  EOSINOPHIL: 4.2%
  ERYTHROCYTE COUNT: 7.04 x10E6/uL
  HEMATOCRIT: 45.37%
  HEMOGLOBIN: 14.97 G/DL
  LEUKOCYTE COUNT: 9.83 x10E3/uL
  LYMPHOCYTE: 70.57%
  MEAN CORPUSCULAR HEMOGLOBIN: 21.3 pg
  MEAN CORPUSCULAR HEMOGLOBIN CONCENTRATION: 33 G/DL
  MEAN CORPUSCULAR VOLUME: 64.57 fL
  MONOCYTE: 2.6%
  NEUTROPHIL: 21.47%
  PLATELET COUNT: 1018.67 x10E3/uL
  ALANINE AMINOTRANSFERASE: 28.67 u/L
  ALBUMIN: 3.9 G/DL
  ALKALINE PHOSPHATASE: 427.33 u/L
  ASPARTATE AMINOTRANSFERASE: 68.67 u/L
  BLOOD UREA NITROGEN: 16.33 mg/dL
  CARBON DIOXIDE: 38.33 mmol/L
  CHLORIDE: 106.67 MEQ/L
  CHOLESTEROL: 62.33 mg/dL
  CREATINE PHOSPHOKINASE: 168 u/L
  CREATININE: 0.4 mg/dL
  GLUCOSE: 168 mg/dL
  LACTATE DEHYDROGENASE: 97 u/L
  LIPASE: 14 u/L
  PHOSPHORUS: 11.37 mg/dL
  POTASSIUM: 6.67 MEQ/L
  SODIUM: 147.67 MEQ/L
  TOTAL BILIRUBIN: 0.47 mg/dL
  TOTAL PROTEIN: 6.33 G/DL
  URIC ACID: 1.27 mg/dL
120 mg/kg, […], time 14 day
  ABSOLUTE BASOPHIL: 90 cells/µL
  ABSOLUTE EOSINOPHIL: 60 cells/µL
  ABSOLUTE LYMPHOCYTE: 10900 cells/µL
  ABSOLUTE MONOCYTE: 270 cells/µL
  BASOPHIL: 0.67%
  EOSINOPHIL: 0.43%
  ERYTHROCYTE COUNT: 6.79 x10E6/uL
  HEMATOCRIT: 41.53%
  HEMOGLOBIN: 14.17 G/DL
  LEUKOCYTE COUNT: 13.77 x10E3/uL
  LYMPHOCYTE: 78.87%
  MEAN CORPUSCULAR HEMOGLOBIN: 20.87 pg
  MEAN CORPUSCULAR HEMOGLOBIN CONCENTRATION: 34.13 G/DL
  MEAN CORPUSCULAR VOLUME: 61.17 fL
  MONOCYTE: 1.33%
  NEUTROPHIL: 17.47%
  PLATELET COUNT: 1228.67 x10E3/uL
  ALANINE AMINOTRANSFERASE: 37 u/L
  ALBUMIN: 3.63 G/DL
  ALKALINE PHOSPHATASE: 379.33 u/L
  ASPARTATE AMINOTRANSFERASE: 68.67 u/L
  BLOOD UREA NITROGEN: 17.67 mg/dL
  CARBON DIOXIDE: 40.67 mmol/L
  CHLORIDE: 107.33 MEQ/L
  CHOLESTEROL: 51 mg/dL
  CREATINE PHOSPHOKINASE: 304.67 u/L
  CREATININE: 0.37 mg/dL
  GLUCOSE: 183.33 mg/dL
  LACTATE DEHYDROGENASE: 123.33 u/L
  LIPASE: 10.67 u/L
  PHOSPHORUS: 9.23 mg/dL
  POTASSIUM: 6.17 MEQ/L
  SODIUM: 144 MEQ/L
  TOTAL BILIRUBIN: 0.4 mg/dL
  TOTAL PROTEIN: 5.9 G/DL
  URIC ACID: 0.17 mg/dL
1200 mg/kg, 72 h, time 3 day
  ABSOLUTE BASOPHIL: 0 CELLS/uL
  ABSOLUTE EOSINOPHIL: 286.33 CELLS/uL
  ABSOLUTE LYMPHOCYTE: 11270.67 CELLS/uL
  ABSOLUTE MONOCYTE: 0 CELLS/uL

Source: ChEMBL document CHEMBL3885881, “DrugMatrix”
